Measured values published in article PMC3984052 (Bioorganic & medicinal chemistry, 2014).

System: PrP^C in N2a-cl3 neuroblastoma cells that overexpress PrP^C
Assay type: cell-based, mouse
Conditions: values not given

Compound | Potency (EC50 by ELISA) in N2a-cl3 cells, in words
NC(=O)c1ccccc1NC(=O)c1cccnc1N1CCCCC1 [IND87406] | potent
CCOC(=O)c1[nH]c2c(c1C)C(=O)CC(c1ccco1)C2 (stereo not drawn) [IND87564] | potent
COc1cc(OC)cc(C(=O)Nc2ccc(I)cn2)c1 [IND85671] | potent
